20 molecules from patent US20240059703A1 (AMGEN INC., priority 2021, published 2024) can be followed below.

As usually defined, the IC50 is the midpoint of a concentration-inhibition curve. A lower IC50 goes with higher potency.

One test has as its target KRAS G12C (Homo sapiens (Human), UniProt P01116, C118A/G12C). In words: 2 h coupled exchange assay. It is filed as biochemical. The settings on record: Avg 2 h Coupled exchange IC50, 2 h compound pre-incubation. The protocol:
The term “2 h coupled exchange assay” or “20 h coupled exchange assay” as used herein refers to the assay described in the Section entitled “BIOLOGICAL EVALUATION.”

Test [1] deals with MIA PaCa-2 (human pancreatic carcinoma) cells. In words: Cell Viability Assay (CellTiter-Glo), MIA PaCa-2. It is filed as cell-based. The procedure: Serially-diluted compound or DMSO was added to the cells, and plates were incubated at 37° C., 5% CO2 for 72 h. Cell viability was measured using a CellTiter-Glo® Luminescent Cell Viability Assay kit (Promega) according to the manufacturer's protocol. The luminescence signal of treated samples was normalized to DMSO control, and data were analyzed using a 4-parameter logistic model to calculate IC50 values.

Test [2] relates to A549 (human lung carcinoma) cells. Description: Cell Viability Assay (CellTiter-Glo), A549. It is filed as cell-based. The procedure, abridged: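 Seeding at 1.67E+04 cells/mL is followed by overnight attachment at 37° C., 5% CO2. Serially diluted compound is added for 72 h. Viability is read by CellTiter-Glo luminescence, scaled to DMSO and fitted (4-parameter logistic) to give IC50.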
A general note: ATP-based viability assays read luminescence as a measure of living cells.

Where [3] appears, read: SOS-mediated nucleotide exchange.

Sequence of KRAS G12C (P01116 other isoform, or with tags, fused parts or gaps G12C/C118A): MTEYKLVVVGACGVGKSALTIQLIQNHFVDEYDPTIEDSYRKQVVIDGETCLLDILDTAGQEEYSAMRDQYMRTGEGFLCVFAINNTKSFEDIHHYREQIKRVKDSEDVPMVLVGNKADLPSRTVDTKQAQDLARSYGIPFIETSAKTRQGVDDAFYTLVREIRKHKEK

Take `C=CC(=O)N1CC2(CCN(c3nc4c(c(-c5cc(O)ccc5Cl)c3C)CCN(C(C)C)C4)C2)C1` [Example 18-9, 1-(6-(4-(2-chloro-5-hydroxyphenyl)-3-methyl-7-(2-propanyl)-5,6,7,8-tetrahydro-1,7-naphthyridin-2-yl)-2,6-diazaspiro[3.4]octan-2-yl)-2-propen-1-one]: the half-inhibitory concentration (IC50) at KRAS G12C is 419 nM; in test [1] (Homo sapiens, MIA PaCa-2, 72 h), 316 nM; in test [2] (Homo sapiens, A549, 72 h) it was over 5000 nM.

`C=CC(=O)N1CC2(CCN(c3nc4c(c(-c5cccc6cc(O)ccc56)c3C)COC(C)(C)C4)C2)C1` [Example 14-43, 1-(6-(4-(6-hydroxy-1-naphthalenyl)-3,7,7-trimethyl-7,8-dihydro-5H-pyrano[4,3-b]pyridin-2-yl)-2,6-diazaspiro[3.4]octan-2-yl)-2-propen-1-one]: the concentration for half-maximal inhibition (IC50) is 110 nM on KRAS G12C; 136 nM in test [1] (Homo sapiens, MIA PaCa-2, 72 h); over 5000 nM in test [2] (Homo sapiens, A549, 72 h).

`C=CC(=O)N1CC2(CCN(c3nc4c(c(-c5c(N)c(Cl)cc(Cl)c5F)c3C#N)COC(C)(C)C4)C2)C1` (single isomer, unassigned) [Example 13-156, 4-(2-amino-3,5-dichloro-6-fluorophenyl)-7,7-dimethyl-2-(2-(2-propenoyl)-2,6-diazaspiro[3.4]octan-6-yl)-7,8-dihydro-5H-pyrano[4,3-b]pyridine-3-carbonitrile]: the concentration for half-maximal inhibition (IC50) on KRAS G12C (setting [3]) worked out at 140000 nM; in test [1] (72 h), 5920 nM; in test [2] (72 h), 8160 nM.

`C=CC(=O)N1CC2(CCN(c3nc4cc(-n5ccnc5C)ccc4c(-c4ccccc4Cl)c3C#N)C2)C1` [Example 17-3, 4-(2-chlorophenyl)-7-(2-methyl-1H-imidazol-1-yl)-2-(2-(2-propenoyl)-2,6-diazaspiro[3.4]octan-6-yl)-3-quinolinecarbonitrile]: the half-maximal inhibitory concentration (IC50) was found to be 36 nM on KRAS G12C; 684 nM in test [1] (Homo sapiens, MIA PaCa-2, 72 h); 1880 nM in test [2] (Homo sapiens, A549, 72 h).

As to `C=CC(=O)N1CC2(CCN(c3nc4cc(-c5scnc5C)ccc4c(-c4ccccc4F)c3C#N)C2)C1` [Example 20-2, 4-(2-fluorophenyl)-7-(4-methyl-1,3-thiazol-5-yl)-2-(2-(2-propenoyl)-2,6-diazaspiro[3.4]octan-6-yl)-3-quinolinecarbonitrile], the IC50 against KRAS G12C was 146 nM; in test [1] (Homo sapiens, MIA PaCa-2, 72 h) it was 1440 nM; in test [2] (Homo sapiens, A549, 72 h) it was over 5000 nM.

With `C=CC(=O)N1CC2(CCN(c3nc4c(c(-c5cc(O)ccc5C)c3C#N)COC(C)(C)C4)C2)C1` (single isomer, unassigned) [Example 13-128, 4-(5-hydroxy-2-methylphenyl)-7,7-dimethyl-2-(2-(2-propenoyl)-2,6-diazaspiro[3.4]octan-6-yl)-7,8-dihydro-5H-pyrano[4,3-b]pyridine-3-carbonitrile], the IC50 on KRAS G12C (setting [3]) was 91 nM; in test [1] (Homo sapiens, MIA PaCa-2, 72 h), over 5000 nM; in test [2] (Homo sapiens, A549, 72 h), over 5000 nM.

Take `C=CC(=O)N1CC2(CCN(c3nc4c(c(-c5cc(O)cc6ccccc56)n3)CCCC4)C2)C1` [Example 1-1, 1-(6-(4-(3-hydroxynaphthalen-1-yl)-5,6,7,8-tetrahydroquinazolin-2-yl)-2,6-diazaspiro[3.4]octan-2-yl)prop-2-en-1-one]: the IC50 at KRAS G12C (setting [3]) was 431 nM; in test [1] (Homo sapiens, MIA PaCa-2, 72 h), over 5000 nM; in test [2] (Homo sapiens, A549, 72 h), over 5000 nM.

For `C=CC(=O)N1CC2(CCN(c3nc4c(c(-c5c(C)ccc6[nH]ncc56)c3C#N)CCCC4)C2)C1` [Example 2-8, 4-(5-methyl-1H-indazol-4-yl)-2-(2-(2-propenoyl)-2,6-diazaspiro[3.4]octan-6-yl)-5,6,7,8-tetrahydro-3-quinolinecarbonitrile], the IC50 came out at 59 nM against KRAS G12C (setting [3]); 554 nM in test [1] (Homo sapiens, MIA PaCa-2, 72 h); 3640 nM in test [2] (Homo sapiens, A549, 72 h).

For `C=CC(=O)N1CC2(CCN(c3nc4c(c(-c5ncccc5C)c3C#N)CC[C@@](C)(c3scnc3C)C4)C2)C1` [Example 23-10, (7R)-7-methyl-4-(3-methyl-2-pyridinyl)-7-(4-methyl-1,3-thiazol-5-yl)-2-(2-(2-propenoyl)-2,6-diazaspiro[3.4]octan-6-yl)-5,6,7,8-tetrahydro-3-quinolinecarbonitrile], the IC50 against KRAS G12C is 200 nM; in test [1] (Homo sapiens, MIA PaCa-2, 72 h), 478 nM; in test [2] (Homo sapiens, A549, 72 h) it was over 5000 nM.

With `C=CC(=O)N1CC2(CCN(c3nc4cc(OC)ccc4c(-c4c(C)ccc5[nH]ncc45)c3F)C2)C1` [Example 27-1, 1-(6-(3-fluoro-7-methoxy-4-(5-methyl-1H-indazol-4-yl)-2-quinolinyl)-2,6-diazaspiro[3.4]octan-2-yl)-2-propen-1-one], the IC50 is 134 nM at KRAS G12C; 996 nM in test [1] (Homo sapiens, MIA PaCa-2, 72 h); over 5000 nM in test [2] (Homo sapiens, A549, 72 h).

For the molecule `C=CC(=O)N1CC2(CCN(c3nc4c(c(-c5c(C)ccc6[nH]ncc56)c3C)CCN(C(C)C)C4)C2)C1` [Example 18-2, 1-(6-(3-methyl-4-(5-methyl-1H-indazol-4-yl)-7-(2-propanyl)-5,6,7,8-tetrahydro-1,7-naphthyridin-2-yl)-2,6-diazaspiro[3.4]octan-2-yl)-2-propen-1-one], the IC50 against KRAS G12C is 268 nM; in test [1] (Homo sapiens, MIA PaCa-2, 72 h), 93 nM; in test [2] (Homo sapiens, A549, 72 h), over 5000 nM.

For the molecule `C=CC(=O)N1CC2(CCN(c3nc4c(c(-c5cc(O)cc6ccccc56)c3C)CCC(C)(C)C4)C2)C1` [Example 2-27, 1-(6-(4-(3-hydroxy-1-naphthalenyl)-3,7,7-trimethyl-5,6,7,8-tetrahydro-2-quinolinyl)-2,6-diazaspiro[3,4]octan-2-yl)-2-propen-1-one], the half-maximal inhibitory concentration (IC50) is 102 nM against KRAS G12C (setting [3]); 214 nM in test [1] (Homo sapiens, MIA PaCa-2, 72 h); over 5000 nM in test [2] (Homo sapiens, A549, 72 h).

Take `C=CC(=O)N1CC2(CCN(c3nc4c(c(-c5cccc6cc(O)ccc56)c3C)CCC(C)(C)C4)C2)C1` (single isomer, unassigned) [Example 2-15, (P)-1-(6-(4-(6-hydroxy-1-naphthalenyl)-3,7,7-trimethyl-5,6,7,8-tetrahydro-2-quinolinyl)-2,6-diazaspiro[3.4]octan-2-yl)-2-propen-1-one]: the half-maximal inhibitory concentration (IC50) is 66 nM against KRAS G12C (setting [3]); 106 nM in test [1] (Homo sapiens, MIA PaCa-2, 72 h); over 5000 nM in test [2] (Homo sapiens, A549, 72 h).

Turning to `C=CC(=O)N1CC2(CCN(c3nc4c(c(-c5cc(O)ccc5F)c3C#N)CCN(C(C)C)C4)C2)C1` [Example 21-15, 4-(2-fluoro-5-hydroxyphenyl)-7-(2-propanyl)-2-(2-(2-propenoyl)-2,6-diazaspiro[3.4]octan-6-yl)-5,6,7,8-tetrahydro-1,7-naphthyridine-3-carbonitrile], the IC50 against KRAS G12C was 220 nM; in test [1] (Homo sapiens, MIA PaCa-2, 72 h), over 5000 nM; in test [2] (Homo sapiens, A549, 72 h) it was over 5000 nM.

Consider `C=CC(=O)N1CC2(CCN(c3nc4c(c(-c5ccc(F)cc5Cl)c3C#N)CCC(c3scnc3C)=C4)C2)C1` (atropisomer, axis not shown; (M)) [Example 23-32, (M)-4-(2-chloro-4-fluorophenyl)-7-(4-methyl-1,3-thiazol-5-yl)-2-(2-(2-propenoyl)-2,6-diazaspiro[3.4]octan-6-yl)-5,6-dihydro-3-quinolinecarbonitrile], for which the IC50 was found to be 282 nM on KRAS G12C, 1950 nM in test [1] (72 h) and 5500 nM in test [2] (72 h).

`C=CC(=O)N1CC2(CCN(c3nc4c(c(-c5ccccc5C)c3C#N)CC[C@H](c3scnc3C)C4)C2)C1` (single isomer, unassigned) [Example 23-6]: the values for the concentration for half-maximal inhibition (IC50) (against KRAS G12C; in test [1] (72 h); in test [2] (72 h)) were 128 nM, 3420 nM and 13000 nM, respectively.

As for `C=CC(=O)N1CC2(CCN(c3nc4c(c(-c5cccc(F)c5O)c3C)CCN(c3scnc3C)C4)C2)C1` [Example 18-21, 1-(6-(4-(3-fluoro-2-hydroxyphenyl)-3-methyl-7-(4-methyl-1,3-thiazol-5-yl)-5,6,7,8-tetrahydro-1,7-naphthyridin-2-yl)-2,6-diazaspiro[3.4]octan-2-yl)-2-propen-1-one], the IC50 is 800 nM against KRAS G12C; 3370 nM in test [1] (Homo sapiens, MIA PaCa-2, 72 h); over 25000 nM in test [2] (Homo sapiens, A549, 72 h).

As for `C=CC(=O)N1CC2(CCN(c3nc4c(c(-c5c(C)ccc6[nH]ncc56)c3C#N)CCC4)C2)C1` [Example 1-3, 4-(5-methyl-1H-indazol-4-yl)-2-(2-(2-propenoyl)-2,6-diazaspiro[3.4]octan-6-yl)-6,7-dihydro-5H-cyclopenta[b]pyridine-3-carbonitrile], the IC50 on KRAS G12C (setting [3]) worked out at 154 nM; in test [1] (Homo sapiens, MIA PaCa-2, 72 h) it was 847 nM; in test [2] (Homo sapiens, A549, 72 h) it was 7420 nM.

`C=CC(=O)N1CC2(CCN(c3nc4c(c(-c5ncccc5F)c3C#N)CC[C@H](c3scnc3C)C4)C2)C1` [Example 23-60, (7S)-4-(3-fluoro-2-pyridinyl)-7-(4-methyl-1,3-thiazol-5-yl)-2-(2-(2-propenoyl)-2,6-diazaspiro[3.4]octan-6-yl)-5,6,7,8-tetrahydro-3-quinolinecarbonitrile]: the IC50 on KRAS G12C was determined as 24 nM; in test [1] (Homo sapiens, MIA PaCa-2, 72 h), 47 nM; in test [2] (Homo sapiens, A549, 72 h) it was 14000 nM.

As to `C=CC(=O)N1CC2(CCN(c3nc4c(c(-c5c(C)ccc6[nH]ncc56)c3C#N)CCC(C)(C)C4)C2)C1` (single isomer, unassigned) [Example 1-8, (P)-7,7-dimethyl-4-(5-methyl-1H-indazol-4-yl)-2-(2-(2-propenoyl)-2,6-diazaspiro[3,4]octan-6-yl)-5,6,7,8-tetrahydro-3-quinolinecarbonitrile], the IC50 is 14 nM at KRAS G12C (setting [3]); 36.4 nM in test [1] (72 h); over 5000 nM in test [2] (Homo sapiens, A549, 72 h).
